Tests used:
[1] = biological target: Dopamine receptors; D1 & D2 (Rattus norvegicus, UniProt P18901+P61169); experiment: In vitro binding affinity to Dopamine receptor D1/Dopamine receptor D2 in rat striatal membranes using [3H]N-propylnorapomorphine; type: cell membranes, Striatum, Membrane
D(1A) dopamine receptor = D(1A) dopamine receptor (Rattus norvegicus, UniProt P18901); experiment: In vitro binding affinity to Dopamine receptor D1 in rat striatal membranes using D1 antagonist [3H]SCH-23390; type: cell membranes, Striatum, Membrane
Rattus norvegicus [2] = experiment: Compound was evaluated for reversal of the increase in rat striatum DOPA accumulation produced by the pretreatment with GBL (750 mg/Kg, ip) and NSD 1015 (100 mg/Kg, ip); type: functional
Rattus norvegicus [3] = experiment: Compound was evaluated for inhibition of the spontaneous firing of substantia nigra DA neurons in anesthetized rats at 2.5 mg/Kg (ip); type: functional
D(2) dopamine receptor = D(2) dopamine receptor (Rattus norvegicus, UniProt P61169); experiment: In vitro binding affinity to Dopamine receptor D2 in rat striatal membranes using D2 antagonist [3H]spiperone; type: cell membranes, Striatum, Membrane
Rattus norvegicus [4] = experiment: Compound (2.0 mg/kg ip.) was evaluated for reversal of the increase in rat striatum DOPA accumulation produced by the pretreatment with GBL (750 mg/Kg, ip) and NSD 1015 (2 mg/Kg, ip); type: functional
Rattus norvegicus [5] = experiment: Compound was evaluated for inhibition of the spontaneous firing of substantia nigra DA neurons in anesthetized rats at 0.25 mg/Kg (ip); type: functional
Rattus norvegicus [6] = experiment: Compound was evaluated for reversal of the increase in rat striatum DOPA accumulation produced by the pretreatment with GBL (750 mg/kg, ip) and NSD 1015 (100 mg/Kg, ip); type: functional

Chain of D(1A) dopamine receptor (P18901 whole entry): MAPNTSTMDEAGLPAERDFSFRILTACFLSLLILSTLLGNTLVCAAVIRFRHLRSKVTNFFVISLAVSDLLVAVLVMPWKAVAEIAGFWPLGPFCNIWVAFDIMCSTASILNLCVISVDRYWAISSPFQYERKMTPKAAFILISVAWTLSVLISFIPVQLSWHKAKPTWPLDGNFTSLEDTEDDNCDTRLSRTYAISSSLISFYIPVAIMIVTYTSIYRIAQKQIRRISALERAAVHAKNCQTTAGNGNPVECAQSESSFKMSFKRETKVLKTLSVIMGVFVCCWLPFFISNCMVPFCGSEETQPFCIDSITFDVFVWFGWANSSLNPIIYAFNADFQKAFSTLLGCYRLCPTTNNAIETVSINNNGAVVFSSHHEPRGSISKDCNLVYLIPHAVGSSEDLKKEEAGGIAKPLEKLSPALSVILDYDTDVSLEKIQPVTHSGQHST
Chain of D(2) dopamine receptor (P61169 whole entry): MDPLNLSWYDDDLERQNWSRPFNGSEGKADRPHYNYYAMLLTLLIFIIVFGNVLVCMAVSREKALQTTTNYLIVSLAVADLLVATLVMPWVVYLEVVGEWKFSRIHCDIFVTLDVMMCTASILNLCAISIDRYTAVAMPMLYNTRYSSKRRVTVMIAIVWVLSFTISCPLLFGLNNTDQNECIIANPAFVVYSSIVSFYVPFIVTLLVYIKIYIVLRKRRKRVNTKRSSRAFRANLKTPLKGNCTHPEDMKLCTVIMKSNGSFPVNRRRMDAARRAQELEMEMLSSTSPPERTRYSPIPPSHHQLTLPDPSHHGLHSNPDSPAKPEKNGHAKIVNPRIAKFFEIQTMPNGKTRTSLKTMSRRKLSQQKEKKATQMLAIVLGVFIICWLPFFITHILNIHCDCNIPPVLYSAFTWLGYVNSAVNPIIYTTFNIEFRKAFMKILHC

CN1CCC=C2c3nc(N)sc3CC[C@H]21
IC50 [1]: 127 nM
IC50 (D(1A) dopamine receptor): > 20000 nM
ED50 (Rattus norvegicus [2]): 0.5 mg/kg
inhibition in vivo at 2.5 mg/kg (Rattus norvegicus [3]): 99%
IC50 (D(2) dopamine receptor): 376 nM

CN1CCc2cccc3c2[C@H]1Cc1ccc(O)c(O)c1-3 [APOMORPHINE]
Inhibition (Rattus norvegicus [4]): 100%
inhibition in vivo at 0.25 mg/kg (Rattus norvegicus [5]): 100%

CCCN1CCC=C2c3nc(N)sc3CC[C@@H]21
IC50 (D(1A) dopamine receptor): > 15000 nM
ED50 (Rattus norvegicus [2]): > 10 mg/kg
inhibition in vivo at 2.5 mg/kg (Rattus norvegicus [3]): 22%

CCCN1CCC=C2c3nc(N)sc3CC[C@H]21
IC50 (D(1A) dopamine receptor): > 15000 nM
ED50 (Rattus norvegicus [2]): 4.8 mg/kg
inhibition in vivo at 2.5 mg/kg (Rattus norvegicus [3]): 91%

CN1CCC=C2c3nc(N)sc3CC[C@@H]21
IC50 [1]: 464 nM
IC50 (D(1A) dopamine receptor): > 20000 nM
ED50 (Rattus norvegicus [6]): > 10 mg/kg
inhibition in vivo at 2.5 mg/kg (Rattus norvegicus [3]): 67%
IC50 (D(2) dopamine receptor): 768 nM

From ChEMBL document CHEMBL1125951, “Synthesis and dopaminergic activity of the enantiomers of 6-methyl-4,5a,6,7,8-hexahydrothiazolo[4,5-f]quinolin-2-amine (PD 128483)” (Bioorg Med Chem Lett, 1991)
